Assay results: patent publication US4267189A, “Method of use and composition for 1,3-dihydro-3-(2-hydroxy-2-methylpropyl)-2H-isoindol-1-one” (American Home Products Corporation, priority 1979, dated 1981)

Key:
[1] = test system: Indomethacin-Induced Ulcer Formation; test: Indomethacin-induced ulcer formation; format: in vivo, rat (female albino Sprague-Dawley); conditions: for Ulcers Formed: mean ± S.E.; for ED50: Rattus norvegicus, indomethacin-induced ulcers, oral, doses in mg/kg
Protocol: The method utilized for the production and evaluation of indomethacin-induced ulcer formation was essentially as described by Y. H. Lee et al., Arch. Int. Pharmacodyn. […] Indomethacin (20 mg/kg, i.p.) was given, the animals sacrificed by cervical dislocation 5 hr later and the number of ulcers present in the glandular portion of the stomach determined. The test compound was administered orally (0.2 ml) 1 hr before the indomethacin. The vehicle employed for the administrations was water containing Tween 80 (1 drop per 7 ml). There were 12-32 animals per group.

Gastric Acid Secretion [2] = test: Basal gastric acid secretion in the Shay (pylorus-ligated) rat; format: in vivo, rat (female Sprague Dawley); conditions: for Gastric Acid Output: mean ± S.E.; for ED50: Rattus norvegicus, gastric acid secretion; for basal gastric acid secretion (in words): rat
Protocol: Female Sprague Dawley rats (Canadian Breeding Laboratories; 160-180 g) were fasted for 48 hours before pyloric ligation. After the first 24 hours of fasting the animals were given access to 8% sucrose in 0.2% sodium chloride for 8 hours. Water was permitted ad libitum except during the 8 hour access to sucrose and after the drug treatment. The compounds were suspended in water with the aid of one drop of Tween 80 per 7 ml for oral or intraperitoneal administration. The pylorus was ligated under ether anesthesia and the sutured incision was covered with flexible collodion to prevent the animals from ingesting adhering blood. The stomachs were lavaged with 0.9% sodium chloride until the return solution was clear. Four hours after pyloric ligation, the animals were killed with diethyl ether and the gastric contents were collected in centrifuge tubes. The amount of acid in the centrifuged gastric juice was determined by titration against 0.1 N sodium hydroxide in a direct reading pH meter of pH 7.0.
Student's t test was used in the evaluation of the data. The ED50 's were obtained graphically by plotting the percent inhibition of gastric acid secretion versus the logarithm of the dose of the compound.

[3] = test system: Oxotremorine-Induced Effects; test: Anticholinergic activity: antagonism of oxotremorine-induced effects (temperature, tremor, salivation, lacrimation); format: in vivo, mice; conditions: for Lacrimation (L) score / Salivation (S) score / Tremor (T) score: 2=strong, 1=weak, 0=none
Protocol: Anticholinergic activity was examined in vivo by determining the ability of the compound to antagonize oxotremorine-induced effects according to the method described by P. S. J. Spencer, Life Sci., 5, 1015 (1965). […] Rectal temperature was measured with a YSI telethermometer 402 physiological probe before administration of test compounds and oxotremorine and at 15 and 30 min after oxotremorine. At the same time the degree of tremor, salivation and lacrimation was scored as follows: 2=strong; 1=weak; 0=none.

[4] = test system: Cold-Restraint-Induced Ulcer Formation; test: Cold-restraint-induced ulcer formation; format: in vivo, rat (male albino Sprague-Dawley); conditions: for Ulcers Formed: mean ± S.E.; for ED50: Rattus norvegicus, cold-restraint ulcers, oral, doses in mg/kg
Description: Int. Pharmacodyn. […] Exp. Biol. Med., 113, 998 (1963) as modified by E. C. Senay and R. J. Levine Proc. Soc. Exp. Biol. Med., 124, 1221 (1967) when administered orally or parenterally (see Examples 3 and 4).
To assess the effects of the test compound on the development of cold-restraint-induced gastric lesions, the method of D. A. Brodie and L. S. Valitski Proc. Soc. Exp. Biol. Med., 113, 998 (1963) as modified by E. C. Senay and R. J. Levine Proc. Soc. Exp. Biol. Med., 124, 1221 (1967) was used. Food was withheld from male albino rats (165-175 g, Sprague-Dawley, Canadian Breeding Laboratories) for 24 hr but water was freely available. The test compound was administered orally (0.2 ml) to the animals (8-24 per group) 30 min before placing the animals into restrainers, the restrainer was made of plexiglass and restricted the movement of the rat to a minimum. The vehicle employed was as described above. The restrainers were placed in a cold environment (4°-7° C.) for 2 hr. The animals were sacrificed by cervical dislocation, the stomachs removed and the number of ulcers in the glandular portion of the stomach determined.

gastric acid secretion [5] = conditions: Lee et al.; cited from earlier work
[6] = 25 mg/kg i.p., 15 min after oxotremorine
[7] = 25 mg/kg i.p., 30 min after oxotremorine
[8] = 100 mg/kg i.p., 15 min after oxotremorine
[9] = 100 mg/kg i.p., 30 min after oxotremorine
[10] = 2 mg/kg i.p., 15 min after oxotremorine
[11] = 2 mg/kg i.p., 30 min after oxotremorine
[12] = 5 mg/kg i.p., 15 min after oxotremorine
[13] = 5 mg/kg i.p., 30 min after oxotremorine

## CC(C)(O)CC1NC(=O)c2ccccc21 (centres unmarked) [Isoindol-1-one, 1,3-dihydro-3-(2-hydroxy-2-methylpropyl)-2H-isoindol-1-one]
[1]; 25 mg/kg p.o.
  Ulcers Formed (% Inhibition): 50 % Inhibition
  Ulcers Formed: 4.9 ± 1.2
[1]; 50 mg/kg p.o.
  Ulcers Formed (% Inhibition): 75 % Inhibition
  Ulcers Formed: 2.4 ± 0.7
[1]; 100 mg/kg p.o.
  Ulcers Formed (% Inhibition): 82 % Inhibition
  Ulcers Formed: 1.8 ± 0.6
[1]
  ED50: 22 mg/kg
[1]; rat, orally or parenterally
  indomethacin-induced ulcer formation (in words): inhibiting indomethacin-induced ulcer formation in the rat
Gastric Acid Secretion [2]; 12 mg/kg i.p.
  Gastric Acid Output (% Inhibition): 18 % Inhibition
  Gastric Acid Output: 448 ± 59 μEg/4 hr
Gastric Acid Secretion [2]; 25 mg/kg i.p.
  Gastric Acid Output (% Inhibition): 49 % Inhibition
  Gastric Acid Output: 275 ± 57 μEg/4 hr
Gastric Acid Secretion [2]; 25 mg/kg p.o.
  Gastric Acid Output (% Inhibition): 48 % Inhibition
  Gastric Acid Output: 226 ± 48 μEq/4 hr
Gastric Acid Secretion [2]; 50 mg/kg i.p.
  Gastric Acid Output (% Inhibition): 90 % Inhibition
  Gastric Acid Output: 56 ± 12 μEg/4 hr
Gastric Acid Secretion [2]; 50 mg/kg p.o.
  Gastric Acid Output (% Inhibition): 65 % Inhibition
  Gastric Acid Output: 154 ± 33 μEq/4 hr
Gastric Acid Secretion [2]; 100 mg/kg p.o.
  Gastric Acid Output (% Inhibition): 84 % Inhibition
  Gastric Acid Output: 71 ± 19 μEq/4 hr
Gastric Acid Secretion [2]; ip, intraperitoneal administration
  ED50: 25 mg/kg
Gastric Acid Secretion [2]; oral administration
  ED50: 28 mg/kg
Gastric Acid Secretion [2]; listed as 1,3-Dihydro-3-(2-hydroxy-2-methylpropyl)-2H-isoindol-1-one
  basal gastric acid secretion (in words): inhibiting basal gastric acid secretion in the rat
Gastric Acid Secretion [2]; listed as 1,3-dihydro-3-(2-hydroxy-2-methylpropyl)-2H-isoindol-1-one
  basal gastric acid secretion (in words): can inhibit gastric acid secretion
[3]; 25 mg/kg i.p.
  Temperature Before Oxotremorine: 36.7 ± 0.2 °C
[3]; 25 mg/kg i.p., 15 min
  Temperature after Oxotremorine: 31.4 ± 0.2 °C
[3]; [6]
  Lacrimation (L) score: 2.0
  Salivation (S) score: 2.0
  Tremor (T) score: 2.0
[3]; 25 mg/kg i.p., 30 min
  Temperature after Oxotremorine: 29.2 ± 0.2 °C
[3]; [7]
  Lacrimation (L) score: 2.0
  Salivation (S) score: 2.0
  Tremor (T) score: 2.0
[3]; 100 mg/kg i.p.
  Temperature Before Oxotremorine: 32.8 ± 0.2 °C
[3]; 100 mg/kg i.p., 15 min
  Temperature after Oxotremorine: 31.2 ± 0.1 °C
[3]; [8]
  Lacrimation (L) score: 0.7
  Salivation (S) score: 2.0
  Tremor (T) score: 2.0
[3]; 100 mg/kg i.p., 30 min
  Temperature after Oxotremorine: 30.5 ± 0.2 °C
[3]; [9]
  Lacrimation (L) score: 1.0
  Salivation (S) score: 2.0
  Tremor (T) score: 2.0
[3]; see Example 5
  anticholinergic activity (in words): does not exhibit appreciable anticholineric activity
[4]; 50 mg/kg p.o.
  Ulcers Formed (% Inhibition): 40 % Inhibition
  Ulcers Formed: 3.9 ± 1.2
[4]; 100 mg/kg p.o.
  Ulcers Formed (% Inhibition): 55 % Inhibition
  Ulcers Formed: 2.9 ± 0.5
[4]; 200 mg/kg p.o.
  Ulcers Formed (% Inhibition): 69 % Inhibition
  Ulcers Formed: 2.0 ± 0.8
[4]
  ED50: 80 mg/kg
[4]; rat, orally or parenterally
  cold-restraint-induced ulcer formation (in words): cold-resistant-induced ulcer formation in the rat

## CN1[C@@H]2CC[C@H]1C[C@@H](OC(=O)C(CO)c1ccccc1)C2 (some centres unmarked) [Atropine, reference compound]
[1]; 1 mg/kg p.o.
  Ulcers Formed (% Inhibition): 47 % Inhibition
  Ulcers Formed: 5.2 ± 1.5
[1]; 2 mg/kg p.o.
  Ulcers Formed (% Inhibition): 85 % Inhibition
  Ulcers Formed: 1.5 ± 0.8
[1]
  ED50: 1.1 mg/kg
[3]; 2 mg/kg i.p.
  Temperature Before Oxotremorine: 37.6 ± 0.2 °C
[3]; 2 mg/kg i.p., 15 min
  Temperature after Oxotremorine: 36.7 ± 0.4 °C
[3]; [10]
  Lacrimation (L) score: 0
  Salivation (S) score: 0
  Tremor (T) score: 0
[3]; 2 mg/kg i.p., 30 min
  Temperature after Oxotremorine: 35.7 ± 0.4 °C
[3]; [11]
  Lacrimation (L) score: 0
  Salivation (S) score: 0
  Tremor (T) score: 0
[3]; 5 mg/kg i.p.
  Temperature Before Oxotremorine: 37.2 ± 0.3 °C
[3]; 5 mg/kg i.p., 15 min
  Temperature after Oxotremorine: 36.9 ± 0.2 °C
[3]; [12]
  Lacrimation (L) score: 0
  Salivation (S) score: 0
  Tremor (T) score: 0.16
[3]; 5 mg/kg i.p., 30 min
  Temperature after Oxotremorine: 36.9 ± 0.3 °C
[3]; [13]
  Lacrimation (L) score: 0.16
  Salivation (S) score: 0
  Tremor (T) score: 0

## CN(C)CCCN1c2ccccc2CCc2ccccc21 [Imipramine, reference compound]
[4]; 1.25 mg/kg p.o.
  Ulcers Formed (% Inhibition): 37 % Inhibition
  Ulcers Formed: 4.1 ± 1.5
[4]; 2.5 mg/kg p.o.
  Ulcers Formed (% Inhibition): 68 % Inhibition
  Ulcers Formed: 2.1 ± 0.8
[4]; 5 mg/kg p.o.
  Ulcers Formed (% Inhibition): 81 % Inhibition
  Ulcers Formed: 1.2 ± 0.4
[4]
  ED50: 1.7 mg/kg

## COc1ccc2c(c1)c(CC(=O)O)c(C)n2C(=O)c1ccc(Cl)cc1 [Indomethacin]
Gastric acid secretion [5]
  effect on gastric acid secretion (in words): no effect on gastric acid secretion
  ulcer formation (in words): induces ulcer formation
